According to patent publication US7012098B2, “Inhibitors of inducible nitric oxide synthase for chemoprevention and treatment of cancers” (Pharmacia Corporation, priority 2001, dated 2006):
Counter-ions that a name gives are not always drawn.

Assays:
[1] = target: i-NOS (Homo sapiens, UniProt P35228); assay: i-NOS inhibition, comparison with NIL amides; assay type: biochemical; settings: compared with NIL amide or NIL dimethylamide
[2] = test system: intestinal tumorigenesis; settings: APC^Δ716 mice; cited from earlier work
[3] = target: iNOS (Rattus norvegicus, UniProt Q06518); assay: Colonic mucosal iNOS activity after dietary treatment; assay type: in vivo, male F344 rats
Method: (§1) In Vivo Assay of Modulation of Colonic Mucosal Activities of NOS and COX isoforms by iNOS and COX-2 Inhibitors
(§2) NOS and iNOS activities were determined in colonic samples as prepared and described above. Conversion of L-arginine to L-citrulline was measured by a modification of an earlier described method (Rao et al, Carcinogenesis 21, supra; Ambs et al., Cancer Res. 58:334-41, 1998, which is herein incorporated by reference). The assay was carried out by adding 100 μg sample protein to 150 μl of assay buffer [50 mM HEPES, 1 mM DTT, 1 mM MgCl2, 5 mg/L pepstatin A, 0.1 mM PMSF, and 3 mg/L aprotinin, pH 7.4] containing 70 μM arginine, 250,000 dpm L-[^3H]-arginine, 2 mM NADPH, 5μM tetrahydro biopterin, 5 μM flavin adenine dinucleotide, and 0.5 mM CaCi2 to measure total NOS activity, or 1 mM EGTA (without calcium) to determine Ca+^2-independent iNOS activity. After 30 min at 37° C., the reaction was stopped with 100 μl of 1M trichloroacetic acid. Then the samples were adjusted to pH 4.6 by adding 500 μl of 20 mM HEPES and loaded on to Dowex AG 50W-X8 resin columns. L-[^3H]-citrulline was eluted and separated on TLC. Radioactivity was counted by a BioScan Radiomatic detector. Results are expressed as pmol L-[^3H]-citrulline released/mg protein/min.

[4] = test system: NOS; assay: Colonic mucosal NOS activity after dietary treatment; assay type: in vivo, male F344 rats; settings: 1800 ppm in diet; AOM-treated rats, colonic mucosa; Mean ± SEM
Method: as §1, §2

[5] = test system: AOM-induced colonic ACF; assay: Chemopreventive effects in rats with azoxymethane-induced aberrant crypt foci; assay type: in vivo, male F344 rats
Source text: In Vivo Assay of Chemopreventive Effects of Therapeutic Compounds in Rats with Azoxymethane-induced Aberrant Crypt Foci
Azoxymethane (AOM) (CAS:25843-45-2) was purchased from Ash Stevens (Detroit, Mich.). iNOS and COX-2 selective inhibitors were provided by Pharmacia, (St. Louis, […].). Sulindac, a non-selective inhibitor of COX-isoforms and a known inhibitor of colon carcinogenesis, was supplied by the Chemoprevention Branch of the National Cancer Institute (Bethesda, Md.). Weanling male F344 rats were purchased from Charles River Breeding Laboratories (Kingston, N.Y.). All ingredients of the semipurified diet were obtained from Dyets Inc., (Bethlehem, Pa.) and were stored at 4° C. until the experimental diets were prepared. The rats were held in quarantine for 1 week and had access to modified AIN-76A semipurified control diet (Reddy et al., Cancer Res. 50: 2562-2568, 1990, which is herein incorporated by reference.). They were randomly distributed into various dietary groups and were transferred to an animal holding room where they were housed, three rats to a plastic cage, under controlled conditions of a 12-h light/12-h dark cycle, 50% relative humidity and 21° C. room temperature. Experimental diets were prepared by mixing chemopreventive agents with modified AIN-76A control diet.
To quantify aberrant crypt foci, after a minimum of 24 h in buffered formalin, the colons were cut into 2-cm segments starting at the anus; for the next 5-10 min they were placed in a Petri dish containing 0.2% methylene blue in Krebs Ringer solution. They were then placed, mucosal side up, on a microscope slide and observed through a light microscope. Aberrant crypt foci were recorded according to standard procedures that are being used routinely in our laboratory (Rao et al., Carcinogenesis 21: 617-21, 2000; Rao et al., Cancer Res. 53:4182-88, 1993, which are herein incorporated by reference.). […] The parameters used to assess the aberrant crypts were their occurrence and multiplicity. Crypt multiplicity was determined as the number of crypts in each focus and categorized as containing up to 3, or 4 or more aberrant crypts/focus.

[6] = target: T1, COX-2 (Rattus norvegicus, UniProt P35355); assay: Colonic mucosal COX-2 activity after dietary treatment; assay type: in vivo, male F344 rats; settings: 1800 ppm in diet; AOM-treated rats, colonic mucosa; Mean ± SEM
T1 sequence (P35355 18-604): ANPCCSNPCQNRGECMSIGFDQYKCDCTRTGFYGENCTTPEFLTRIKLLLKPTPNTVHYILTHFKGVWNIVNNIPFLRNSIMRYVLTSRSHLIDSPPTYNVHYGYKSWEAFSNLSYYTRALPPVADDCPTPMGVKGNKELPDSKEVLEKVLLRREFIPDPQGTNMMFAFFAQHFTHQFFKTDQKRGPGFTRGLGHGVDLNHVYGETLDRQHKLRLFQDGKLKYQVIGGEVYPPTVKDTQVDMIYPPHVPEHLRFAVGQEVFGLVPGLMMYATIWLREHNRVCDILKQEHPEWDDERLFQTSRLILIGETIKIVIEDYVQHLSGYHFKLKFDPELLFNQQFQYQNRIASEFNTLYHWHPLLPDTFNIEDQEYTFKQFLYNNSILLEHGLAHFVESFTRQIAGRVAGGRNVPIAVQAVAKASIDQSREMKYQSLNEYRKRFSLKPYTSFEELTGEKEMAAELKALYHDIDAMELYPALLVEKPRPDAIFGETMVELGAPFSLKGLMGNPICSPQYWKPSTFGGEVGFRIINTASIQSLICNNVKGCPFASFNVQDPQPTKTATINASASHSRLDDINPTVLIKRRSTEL
Method: (§3) For determining COX-2 activity, proteins were preincubated with 50 μM of aspirin to block the activity of COX-1. After incubation at 37° C. for 15 min, the reaction was terminated by adding 40 μl of 0.2 M HCl. The COX-mediated metabolites of arachidonic acid were extracted with ethyl acetate (3×0.5 ml). The combined extracts were evaporated to dryness under N2, redissolved in chloroform, and subjected to thin layer chromatography on precoated TLC plastic plates (silica G 60, 20×20 cm, layer thickness 150 μm). […] The metabolites of ^14C-AA corresponding to PGE2, PGF2α, PGD2, 6-Keto PGF1α, and TXB2 were detected by their comigration (Rf-values) with authentic standards. The area of each metabolite was determined in a Bioscan System 200 image scanning counter (Bioscan Inc., Washington, D.C.) equipped with β-detector.

[7] = target: T2, COX-1 (Rattus norvegicus, UniProt Q63921); assay: Colonic mucosal COX-1 activity after dietary treatment; assay type: in vivo, male F344 rats; settings: 1800 ppm in diet; AOM-treated rats, colonic mucosa; Mean ± SEM
T2 sequence (Q63921 27-602): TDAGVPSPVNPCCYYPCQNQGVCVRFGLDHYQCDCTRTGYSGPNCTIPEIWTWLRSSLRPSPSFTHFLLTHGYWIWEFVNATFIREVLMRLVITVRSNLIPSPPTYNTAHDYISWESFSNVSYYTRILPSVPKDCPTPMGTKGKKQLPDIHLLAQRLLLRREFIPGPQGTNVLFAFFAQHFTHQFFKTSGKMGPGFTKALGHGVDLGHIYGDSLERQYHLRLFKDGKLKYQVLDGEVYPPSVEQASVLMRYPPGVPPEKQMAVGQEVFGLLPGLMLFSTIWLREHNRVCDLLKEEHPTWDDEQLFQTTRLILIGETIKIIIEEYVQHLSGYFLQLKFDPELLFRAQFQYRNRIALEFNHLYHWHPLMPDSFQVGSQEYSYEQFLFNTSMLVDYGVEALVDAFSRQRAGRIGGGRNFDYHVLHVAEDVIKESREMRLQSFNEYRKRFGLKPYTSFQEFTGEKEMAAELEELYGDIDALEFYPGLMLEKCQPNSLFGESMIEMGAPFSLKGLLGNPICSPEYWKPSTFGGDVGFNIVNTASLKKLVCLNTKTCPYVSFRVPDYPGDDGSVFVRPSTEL
Method: as §3

[8] = 1800 ppm in diet, AOM-treated male F344 rats, Mean ± SEM

Chain of i-NOS (P35228 whole entry): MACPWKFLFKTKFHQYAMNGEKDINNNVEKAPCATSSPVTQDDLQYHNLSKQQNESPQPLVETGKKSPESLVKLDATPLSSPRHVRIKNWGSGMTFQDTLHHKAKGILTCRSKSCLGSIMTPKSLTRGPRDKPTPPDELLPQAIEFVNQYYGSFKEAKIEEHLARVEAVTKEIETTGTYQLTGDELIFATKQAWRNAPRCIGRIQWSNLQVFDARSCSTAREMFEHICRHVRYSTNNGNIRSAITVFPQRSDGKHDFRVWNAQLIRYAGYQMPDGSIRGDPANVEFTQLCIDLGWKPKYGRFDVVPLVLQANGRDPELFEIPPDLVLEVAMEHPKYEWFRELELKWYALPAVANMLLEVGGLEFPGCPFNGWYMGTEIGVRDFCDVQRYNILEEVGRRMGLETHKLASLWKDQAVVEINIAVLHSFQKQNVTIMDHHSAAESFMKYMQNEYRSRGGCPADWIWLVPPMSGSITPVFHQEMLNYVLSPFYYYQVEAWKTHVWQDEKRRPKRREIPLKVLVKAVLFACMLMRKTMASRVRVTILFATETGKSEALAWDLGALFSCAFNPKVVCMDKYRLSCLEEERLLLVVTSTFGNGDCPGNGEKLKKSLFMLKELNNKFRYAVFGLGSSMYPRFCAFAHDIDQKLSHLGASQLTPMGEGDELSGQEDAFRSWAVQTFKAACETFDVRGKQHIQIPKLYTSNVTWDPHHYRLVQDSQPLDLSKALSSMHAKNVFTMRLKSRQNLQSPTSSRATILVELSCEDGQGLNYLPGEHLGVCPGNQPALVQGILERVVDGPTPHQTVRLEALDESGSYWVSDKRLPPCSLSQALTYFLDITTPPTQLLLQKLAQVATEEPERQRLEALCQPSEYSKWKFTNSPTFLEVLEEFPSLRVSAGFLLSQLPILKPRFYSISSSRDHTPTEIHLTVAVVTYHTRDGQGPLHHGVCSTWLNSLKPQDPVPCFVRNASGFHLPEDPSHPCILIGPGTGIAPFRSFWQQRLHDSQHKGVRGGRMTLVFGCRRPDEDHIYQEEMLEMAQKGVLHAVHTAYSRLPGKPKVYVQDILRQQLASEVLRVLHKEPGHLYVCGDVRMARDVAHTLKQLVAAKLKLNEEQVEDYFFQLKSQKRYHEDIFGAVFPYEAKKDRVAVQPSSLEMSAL

CC(=NO)NC/C(F)=C\CC[C@H](N)C(=O)O [Example G, (2S,5E)-2-amino-6-fluoro-7-[(1-hydroximinoethyl)amino]-5-heptenoic acid]
melting point: 198 to 200 °C

CC(=N)NCCCC[C@H](N)C(=O)Nc1nnn[nH]1 [Example NN, 2S-amino-6-[(1-iminoethyl)amino]-N-(1H-tetrazol-5-yl)hexanamide, hydrate, dihydrochloride]
i-NOS inhibitor potency [1]: more potent

CS(=O)(=O)c1ccc(C2=C(c3ccc(F)c(F)c3)C(=O)OC2)cc1 [MF-Tricyclic]
intestinal tumorigenesis [2]: blocks

N=C(N)NN [aminoguanidine]
suppression of AOM-induced colonic mucosal iNOS activity ([3]; 1800 ppm): 50%
NOS Activity, iNOS ([3]; 1800 ppm in diet, AOM-treated rats, colonic mucosa, Mean ± SEM): 1.1 ± 0.1 pmoles [^3H]-citrulline/mg pro
NOS Activity, NOS [4]: 7.9 ± 1.7 pmoles [^3H]-citrulline/mg pro
Foci containing 1 Crypt [5, 8]: 28.0 ± 2.4
Foci containing 2 Crypt [5, 8]: 29.3 ± 1.3
Foci containing 3 Crypt [5, 8]: 17.8 ± 1.0
Foci containing ≧4 Crypts [5, 8]: 14.6 ± 1.8
Total ACF incidence [5, 8]: 89.8 ± 4.5
effect on AOM-induced total colonic ACF and multicrypt clusters of 4 or more crypts ([5]; 1,800 ppm, compared to control diet): suppressed
COX-Activity, COX-2 [6]: 1.2 ± 0.2 pmoles [^14C]-AA metabolized/m
COX-Activity, COX-1 [7]: 10.8 ± 1.9 pmoles [^14C]-AA metabolized/m
